Test results taken from PubChem BioAssay AID1963440 (Molecular Pharmacology Branch, DTP, NCI, 2024).
pIC50: −log10 of the molar value.

Tested on: NCI-H1417 complex spheroids, growth % test/control
Assay: Anticancer human tumor NCI-H1417 cell line growth inhibition [Asc];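 further: spheroids exposed to compounds for 7 days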;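 on viability, T/C: 100% = DMSO vehicle control wells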
Conditions: for pIC50: curve of first compound; for viability, T/C: stronger effect = lower value
Description: Multicellular complex tumor spheroid response to apoptosis pathway targeting inhibitors Alrizomadlin, Pelcitoclax, and Dasminapant in combination with a variety of drugs and investigational agents in selected tumor cell lines
The MDM2 inhibitor alrizomadlin, the Bcl-2/Bcl-xL inhibitor pelcitoclax, and the IAPs inhibitor dasminapant were evaluated both individually and in combination with standard of care and investigational anticancer small molecules within a complex spheroid model of solid tumors. . Complex spheroids include a stromal component modeled by human endothelial cells (HUVEC) and fibroblasts modeled by human mesenchymal stem cells (MSCs). The concentration ranges selected for each drug and investigational agent were based upon clinically achievable concentrations if the clinical Cmax of the agent was known.
Compounds. The drugs and investigational agents: alrizomadlin (APG-115; NSC831270), pelcitoclax (APG-1252; NSC835773), dasminapant (APG-1387;NSC834197), TAK-243 (NSC785004), copanlisib (NSC809693), olaparib (NSC753686), talazoparib (NSC767125), cobimetinib (NSC 768068), eltanexor (KPT-8602, NSC 794443), abemaciclib (NSC 768073), sotorasib (NSC818433), adagrasib (NSC 831453), MRTX-1133 (NSC 836407), Iadademestat (ORY1001, NSC 806812), and RMC-4630 (NSC839698), were obtained from the NCI Developmental Therapeutics Program Chemical Repository. The FDA-approved anticancer drug set is available from the Developmental Therapeutics Program at https://dtp.cancer.gov/organization/dscb/obtaining/available plates.htm. […] The stock solutions were prepared in dimethyl sulfoxide (DMSO, Sigma-Aldrich, St. Louis, MO, cat. D2650) at 800-fold the tested concentration and stored at -70 degrees C prior to their use. All drugs and investigational agents were tested over a range starting from a high concentration at or near the clinical Cmax and decreasing in half-log increments. If the clinical Cmax for an agent had not been determined, the highest concentration tested was 10 microM.
The patient-derived cancer (PDC) cell lines include five colon adenocarcinomas: 186277-243-T-J2-PDC, 616215-338-R-J1-PDC, 439559-082-T-J2-PDC, 463943-066-T-J2-PDC, and 519858-162-T-J1-PDC; three pancreatic carcinomas: 323965-272-R-J2-PDC, 521955-158-R6-J3-PDC, and 521955-158-R2-J5-PDC; two uterine sarcomas: 327498-152-R-J2-PDC and 993429-296-R-J1-PDC; two rhabdomyosarcomas: 755483-174-R-J1-PDC and 772245-204-R-J1-PDC; two soft tissue sarcomas: 126254-015-R-J1-PDC and 494315-158-R-J1-PDC; two malignant fibrous histiocytomas: 317291-083-R-J1-PDC and 596521-263-R-J1-PDC; two breast carcinomas: 171881-019-R-J1-PDC and 885512-296-R-J2-PDC; and one ovarian carcinoma: 6556581-035-R-J-PDC were obtained from the NCI PDMR, (https://pdmr.cancer.gov). The established cell lines HSSY-2 synovial sarcoma (RRID:CVCL 8719), SYO-1 synovial sarcoma (RRID:CVCL_7146), MPNST malignant peripheral neural sheath tumor were obtained from the Sloan Kettering Institute. The following established cell lines were purchased from the American Type Culture Collection (ATCC, Manassas, VA), Sor the received from the NCI repository:, PANC-1 pancreatic carcinoma (CRL-1469, RRID:CVCL_0480), OVCAR-5 ovarian carcinoma (RRID:CVCL_1628), OVCAR-8 ovarian carcinoma (RRID:CVCL_1629), , MCF-7 breast carcinoma (CRL-12584, RRID:CVCL_0031), MDA-MB-231 breast carcinoma (CRL-12532, RRID:CVCL_0062), NCI-H1876 small cell lung carcinoma (CRL-5902, RRID:CVCL_1503), NCI-H510A small cell lung carcinoma (HTB-184, RRID:CVCL_1565), NCI-H1417 (CRL-5869, RRID:CVCL_1469), and NCI-H196 small cell lung carcinoma (CRL-5823, RRID:CVCL_1509). Dr. Peter Houghton (Greehey Children's Cancer Research Institute, University of Texas Health Science Center, San Antonio, TX) provided Rh-18 rhabdomyosarcoma (RRID:CVCL_1659). Pooled donor human umbilical vein endothelial cells (HUVEC, Lonza, cat. CC-2519) and human mesenchymal stem cells (hMSC, Lonza, cat. PT-2501) were purchased from Lonza (Walkersville, MD).
Cell Culture. […]

[1] = second compound 0.03 µM, first compound 0.00316 µM
[2] = second compound 0.03 µM, first compound 0.01 µM
[3] = second compound 0.03 µM, first compound 0.0316 µM
[4] = second compound 0.03 µM, first compound 0.1 µM
[5] = second compound 0.0949 µM, first compound 0.00316 µM
[6] = second compound 0.0949 µM, first compound 0.01 µM
[7] = second compound 0.0949 µM, first compound 0.0316 µM
[8] = second compound 0.0949 µM, first compound 0.1 µM
[9] = second compound 0.3 µM, first compound 0.00316 µM
[10] = second compound 0.3 µM, first compound 0.01 µM
[11] = second compound 0.3 µM, first compound 0.0316 µM
[12] = second compound 0.3 µM, first compound 0.1 µM
[13] = second compound 0.949 µM, first compound 0.00316 µM
[14] = second compound 0.949 µM, first compound 0.01 µM
[15] = second compound 0.949 µM, first compound 0.0316 µM
[16] = second compound 0.949 µM, first compound 0.1 µM
[17] = second compound 3 µM, first compound 0.00316 µM
[18] = second compound 3 µM, first compound 0.01 µM
[19] = second compound 3 µM, first compound 0.0316 µM
[20] = second compound 3 µM, first compound 0.1 µM
[21] = second compound 0.03 µM, first compound 0.316 µM
[22] = second compound 0.03 µM, first compound 1 µM
[23] = second compound 0.0949 µM, first compound 0.316 µM
[24] = second compound 0.0949 µM, first compound 1 µM
[25] = second compound 0.3 µM, first compound 0.316 µM
[26] = second compound 0.3 µM, first compound 1 µM
[27] = second compound 0.949 µM, first compound 0.316 µM
[28] = second compound 0.949 µM, first compound 1 µM
[29] = second compound 3 µM, first compound 0.316 µM
[30] = second compound 3 µM, first compound 1 µM

Structure (SMILES)	pIC50 (second compound 0.03 µM)	pIC50 (second compound 0.0949 µM)	pIC50 (second compound 0.3 µM)	pIC50 (second compound 0.949 µM)	pIC50 (second compound 3 µM)	viability, T/C [1] [%]	viability, T/C [2] [%]	viability, T/C [3] [%]	viability, T/C [4] [%]	viability, T/C [5] [%]	viability, T/C [6] [%]	viability, T/C [7] [%]	viability, T/C [8] [%]	viability, T/C [9] [%]	viability, T/C [11] [%]	viability, T/C [12] [%]	viability, T/C [15] [%]	viability, T/C [16] [%]	viability, T/C [19] [%]	viability, T/C [20] [%]	other results
Cn1ncnc1[C@H]1c2n[nH]c(=O)c3cc(F)cc(c23)N[C@@H]1c1ccc(F)cc1 + CCN1C(C(=O)NC23CCC(C(=O)O)(CC2)CC3)C(c2cccc(Cl)c2F)C2(C(=O)Nc3cc(Cl)ccc32)C12CCCCC2	7.44	7.86	8.02	7.89	8.00	87.5	66	52.6	42	90	52.3	49.9	38.1	79.2	43.6	39.9	34.4	34.8	39.6	34.5	viability, T/C (second compound 0.03 µM, first compound 0.000316 µM): 99.3%; viability, T/C (second compound 0.03 µM, first compound 0.001 µM): 94%; viability, T/C (second compound 0.0949 µM, first compound 0.000316 µM): 91.8%; viability, T/C (second compound 0.0949 µM, first compound 0.001 µM): 91.7%; viability, T/C (second compound 0.3 µM, first compound 0.000316 µM): 94.5%; viability, T/C (second compound 0.3 µM, first compound 0.001 µM): 90.4%; viability, T/C [10]: 48.5%; viability, T/C (second compound 0.949 µM, first compound 0.000316 µM): 83.6%; viability, T/C (second compound 0.949 µM, first compound 0.001 µM): 87.8%; viability, T/C [13]: 75.8%; viability, T/C [14]: 55.1%; viability, T/C (second compound 3 µM, first compound 0.000316 µM): 80%; viability, T/C (second compound 3 µM, first compound 0.001 µM): 80.8%; viability, T/C [17]: 76.3%; viability, T/C [18]: 49.6%
O=C(c1cc(Cc2n[nH]c(=O)c3ccccc23)ccc1F)N1CCN(C(=O)C2CC2)CC1 + CCN1C(C(=O)NC23CCC(C(=O)O)(CC2)CC3)C(c2cccc(Cl)c2F)C2(C(=O)Nc3cc(Cl)ccc32)C12CCCCC2	5.54	5.40	5.57	5.53	5.49	–	–	98.2	96.3	–	–	101	110	–	101	103	95.3	105	94	90.1	viability, T/C [21]: 107%; viability, T/C [22]: 82.3%; viability, T/C (second compound 0.03 µM, first compound 3.16 µM): 48%; viability, T/C (second compound 0.03 µM, first compound 10 µM): 33.6%; viability, T/C [23]: 88.7%; viability, T/C [24]: 84.8%; viability, T/C (second compound 0.0949 µM, first compound 3.16 µM): 53.6%; viability, T/C (second compound 0.0949 µM, first compound 10 µM): 29.9%; viability, T/C [25]: 98%; viability, T/C [26]: 76.8%; viability, T/C (second compound 0.3 µM, first compound 3.16 µM): 46.1%; viability, T/C (second compound 0.3 µM, first compound 10 µM): 31.2%; viability, T/C [27]: 82.9%; viability, T/C [28]: 76.2%; viability, T/C (second compound 0.949 µM, first compound 3.16 µM): 47.3%; viability, T/C (second compound 0.949 µM, first compound 10 µM): 29.8%; viability, T/C [29]: 95.9%; viability, T/C [30]: 74.8%; viability, T/C (second compound 3 µM, first compound 3.16 µM): 51.5%; viability, T/C (second compound 3 µM, first compound 10 µM): 28.3%
O=C(c1ccc(F)c(F)c1Nc1ccc(I)cc1F)N1CC(O)([C@@H]2CCCCN2)C1 + CCN1C(C(=O)NC23CCC(C(=O)O)(CC2)CC3)C(c2cccc(Cl)c2F)C2(C(=O)Nc3cc(Cl)ccc32)C12CCCCC2	< 6.00	< 6.00	< 6.00	< 6.00	< 6.00	85.9	91.6	88.9	85.9	101	89	97.5	84.1	94.6	91.6	89.6	85	87.5	78.5	89	viability, T/C [21]: 88.2%; viability, T/C [22]: 81.2%; viability, T/C [23]: 88.8%; viability, T/C [24]: 88.8%; viability, T/C [10]: 76.9%; viability, T/C [25]: 85.4%; viability, T/C [26]: 89.5%; viability, T/C [13]: 79.4%; viability, T/C [14]: 87.8%; viability, T/C [27]: 78.8%; viability, T/C [28]: 87.8%; viability, T/C [17]: 86.7%; viability, T/C [18]: 87.5%; viability, T/C [29]: 90.7%; viability, T/C [30]: 77%
